Measured values as given in patent US11390631B1, “Benzodiazepine derivatives as RSV inhibitors” (priority 2015, dated 2022).

How the values were obtained:
[1] = test system: Human RSV-A (“Long” strain); assay: RSV-A assay: inhibition of cytopathic effect in Hep-2 cells, ATPlite readout; assay type: cell-based, Human respiratory syncytial virus (HRSV); conditions: human respiratory syncytial virus, HEp-2, 120 h, read-out: Human RSV-A (“Long” strain) EC50
Outline: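 Hep-2 cells (8,000/well) were infected with RSV-A Long at MOI 0.1 alongside duplicate 2-fold compound dilutions. After 5 days, cell viability was read by ATPlite luminescence to give EC50. CC50 came from a parallel plate without virus.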

[2] = test system: RSV-B, genotype B, strain 9320; assay: RSV-B assay: A549 cells infected with RSV-B, qPCR or ATPlite readout; assay type: cell-based, Human respiratory syncytial virus (HRSV); conditions: human respiratory syncytial virus, A549, read-out: Human RSV-B EC50
Description: Hep-2 cells, (originally derived from tumors grown in irradiated-cortisonised weanling rats that had been injected with epidermoid carcinoma tissue from a person's larynx, but later found to be indistinguishable from HeLa cells by PCR DNA analysis), were used for the culturing of genotype B, strain 9320. Flasks were inoculated with RSV-B and viral stocks were collected once cytopathic effect (CPE) was greater than […]. Viral stocks in 25% o sucrose media were snap frozen using liquid nitrogen to increase viral stability. Viral stock titers were quantified by tissue culture infectious dose 50% o (TCID50) using 8,000 cells per well and 5-fold viral dilutions across a 96-well plate, cultured for 4 days. Viral stock titers were also quantified by a plaque forming unit assay, as described elsewhere.
The assay is run as follows: A549 cells (originally derived through explant culture from a person's carcinomatous lung tissue) are seeded into the inner 60 wells of a 96-well plate at 3,000 cells per well in a volume of 50 μL using A549 growth media (F-12K Media, 1% Penn/Strep, 1% nonessential amino acids, 10% heat-inactivated FBS). 2-fold serial dilutions of control and test compounds are added to the wells in duplicate in a total volume of 25 μL. Viral stock is then added to the wells at a multiplicity of infection (MOI) of 0.5 in a volume of 25 μL, bringing the total volume of each well to 100 μL. The MOI is calculated using the PFU/mL, or TCID50 if unavailable. Each 96-well plate has a control column of 6 wells with cells and virus but no compound (negative control, max CPE), a column with cells but no compound or virus (positive control, minimum CPE), and a column with no cells or virus or compound (background plate/reagent control). The control wells with cells but no virus are given an additional 25 uL of growth media containing an equal quantity of sucrose as those wells receiving the viral stock in order to keep consistent in media and volume conditions. The outer wells of the plate are filled with 125 μL of moat media (DMEM, 1% Penn/Strep) to act as a thermal and evaporative moat around the test wells. 6 days post infection, the plates are read using qPCR or ATP lite (50 uL added per well), which quantifies the amount of ATP (a measure of cell health) present in each well. Assay plates treated with APTlite are read using the Envision luminometer. […] EC50 ranges are as follows: A<0.4 μM; B 0.4-0.8 μM; C>0.8 μM.

[3] = Cytotoxicity on parallel plate without virus, ATPlite readout; assay type: cell-based; conditions: human, Hep-2 cells (no virus), Hep-2 cells without virus, 5-day incubation
Description: Following extensive parameter testing, the final assay is run as follows: Hep-2 cells are seeded into the inner 60 wells of a 96-well plate at 8,000 cells per well in a volume of 50 μL using Growth Media (DMEM without phenol red, 1% L-Glut, 1% Penn/Strep, 1% nonessential amino acids, 10% heat-inactivated FBS). 2-fold serial dilutions of control and test compounds are added to the wells in duplicate in a total volume of 25 μL. Viral stock is then added to the wells at a multiplicity of infection (MOI) of 0.1 in a volume of 25 μL, bringing the total volume of each well to 100 μL. The MOI is calculated using the PFU/mL, or TCID50 if unavailable. Each 96-well plate has a control column of 6 wells with cells and virus but no compound (negative control, max CPE), a column with cells but no compound or virus (positive control, minimum CPE), and a column with no cells or virus or compound (background plate/reagent control). The control wells with cells but no virus are given an additional 25 uL of growth media containing an equal quantity of sucrose as those wells receiving the viral stock in order to keep consistent in media and volume conditions. The outer wells of the plate are filled with 125 μL of moat media (DMEM, 1% Penn/Strep) to act as a thermal and evaporative moat around the test wells. Following a 5-day incubation period, the plates are read using ATPlite (50 uL added per well), which quantifies the amount of ATP (a measure of cell health) present in each well. Assay plates are read using the Envision luminometer. In parallel, cytotoxicity is examined on an additional 96-well plate treated in an identical manner, but substituting the 25 μL of viral stock for 25 μL of growth media. […] EC50 ranges are as follows: A<0.4 μM; B 0.4-0.8 μM; C>0.8 μM and CC50 ranges are as follows: A>50 μM; B 10-50 μM; C<10 μM.

SMILES	EC50 [1] [nM]	EC50 [2] [nM]	CC50 at 5 days [3] [µM]
N#Cc1cc(-c2nnc(N[C@H]3N=C(c4ccccc4)c4ccccc4NC3=O)o2)c(N2CCOCC2)nc1C1CC1 [Example 175]	< 400	400 to 800	
N#Cc1cnc(-c2nnc(N[C@H]3N=C(c4ccccc4)c4ccccc4NC3=O)o2)c(N2CC3CCC(C2)O3)c1 [Example 304]	< 400	< 400	
Cc1ccc(-c2nnc(N[C@H]3N=C(c4ccccc4)c4ccccc4NC3=O)o2)c(N2CCOCC2)n1 [Example 252]	< 400	< 400	
O=C1Nc2ccccc2C(c2ccccc2)=N[C@@H]1Nc1nnc(-c2ncsc2N2CCOCC2)o1 [Example 336]	< 400	< 400	
O=C1Nc2c(F)cccc2C(c2ccccc2)=N[C@@H]1Nc1nnc(-c2ccccc2N2CCOCC2)o1 [Example 355a]	< 400	< 400	
O=C1Nc2ccccc2C(c2ccccc2)=N[C@@H]1Nc1nnc(-c2ncc(C(F)(F)F)cc2N2CC3CCC(C2)O3)o1 [Example 251]	< 400	< 400	
O=C1Nc2ccccc2C(c2ccccc2)=NC1Nc1nnc(-c2ccc(-n3cccn3)cc2N2CCOCC2)o1 (stereo not drawn) [Example 129]	< 400	< 400	
CN1CCN(c2ccccc2-c2nnc(NC3N=C(c4ccccc4)c4ccccc4NC3=O)o2)CC1 (stereo not drawn) [Example 224]	> 800	< 400	
N#Cc1ccc(-c2nnc(NC3N=C(c4ccccc4)c4ccccc4NC3=O)o2)c(N2CCOCC2)c1 (stereo not drawn) [Example 131]	< 400	< 400	
N#Cc1ccc(-c2ccc(NC3N=C(c4ccccc4)c4ccccc4NC3=O)nn2)cc1 (stereo not drawn) [Example 377]	< 400	< 400	
O=C1Nc2ccccc2C(c2ccccc2)=N[C@@H]1Nc1nnc(-c2nc(-c3ccccc3)sc2N2CCOCC2)o1 [Example 340]	< 400	< 400	
O=C1Nc2ccccc2C(c2ccccc2)=N[C@@H]1Nc1nnc(-c2nc(-c3ccncc3)sc2N2CCOCC2)o1 [Example 429]	< 400	< 400	
O=C1Nc2ccccc2C(c2ccccc2)=N[C@@H]1Nc1nnc(-c2cccnc2N2CCOCC2)o1 [Example 242]	< 400	< 400	
CC(F)(F)c1nc(-c2nnc(N[C@H]3N=C(c4ccccc4)c4ccccc4NC3=O)o2)c(N2CCOCC2)s1 [Example 407]	< 400	< 400	
O=C1Nc2ccccc2C(c2ccccc2)=N[C@@H]1Nc1nnc(-c2ncc(C(F)(F)F)cc2N2CCC(F)CC2)o1 [Example 269]	> 800	400 to 800	
N#Cc1cnc(-c2nnc(N[C@H]3N=C(c4ccccc4)c4ccccc4NC3=O)o2)c(N2CCOCC2)c1 [Example 160]		< 400	
O=C1Nc2ccccc2C(c2ccccc2)=NC1Nc1nnc(-c2ccc(F)cc2)s1 (stereo not drawn) [Example 80]	> 800		> 50
O=C1Nc2ccccc2C(c2ccccc2)=NC1Nc1ncc(-c2ccccc2)o1 (stereo not drawn) [Example 84]	> 800		10 to 50
O=C1Nc2ccccc2C(c2ccccc2)=NC1Nc1nnc(-c2cc[nH]c(=O)c2)o1 (stereo not drawn) [Example 40]	> 800		> 50
O=C1Nc2ccccc2C(c2ccccc2)=NC1Nc1nnc(-c2ccncc2)o1 (stereo not drawn) [Example 61]	400 to 800		> 50
O=C1Nc2ccccc2C(c2ccccc2)=NC1Nc1nnc(C2CCOCC2)o1 (stereo not drawn) [Example 21]	> 800		> 50
O=C1Nc2ccccc2C(c2ccccc2)=NC1Nc1nnc(-c2ccc(N3CCOCC3)cc2)o1 (stereo not drawn) [Example 124]		< 400	
Cn1ccnc1-c1nnc(NC2N=C(c3ccccc3)c3ccccc3NC2=O)o1 (stereo not drawn) [Example 67]	> 800		> 50

SMILES	EC50 [1] [nM]	EC50 [2] [nM]	CC50 at 5 days [3] [µM]
COCc1cccc(-c2nnc(NC3N=C(c4ccccc4)c4ccccc4NC3=O)o2)n1 (stereo not drawn) [Example 64]	> 800		> 50
Cc1ccc(-c2nnc(NC3N=C(c4ccccc4)c4ccccc4NC3=O)o2)o1 (stereo not drawn) [Example 71]	> 800		> 50
O=C1Nc2ccccc2C(c2ccccc2)=NC1Nc1nc2ccc(Cl)cc2o1 (stereo not drawn) [Example 99]	> 800		10 to 50
Cn1cnc(-c2nnc(NC3N=C(c4ccccc4)c4ccccc4NC3=O)o2)c1 (stereo not drawn) [Example 68]	> 800		> 50
O=C1Nc2ccccc2C(c2ccccc2)=NC1Nc1nnc(-c2ncco2)o1 (stereo not drawn) [Example 70]	> 800		> 50
O=C1Nc2ccccc2C(c2ccccc2)=NC1Nc1nc(N2CCOCC2)ns1 (stereo not drawn) [Example 88]	> 800		10 to 50
Cc1cc(-c2nnc(NC3N=C(c4ccccc4)c4ccccc4NC3=O)o2)on1 (stereo not drawn) [Example 74]	> 800		> 50
O=C1Nc2ccccc2C(c2ccccc2)=NC1Nc1nnc(-c2ccc3ccccc3c2)o1 (stereo not drawn) [Example 16]	400 to 800		> 50
O=C1Nc2ccccc2C(c2ccccc2)=NC1Nc1nc2ccccc2o1 (stereo not drawn) [Example 100]	> 800		10 to 50
Cn1cc(-c2nnc(NC3N=C(c4ccccc4)c4ccccc4NC3=O)o2)cn1 (stereo not drawn) [Example 66]	400 to 800		> 50
O=C1Nc2ccccc2C(c2ccccc2)=NC1Nc1nnc(-c2ccc3nc[nH]c3c2)o1 (stereo not drawn) [Example 41]	> 800		> 50
O=C1Nc2ccccc2C(c2ccccc2)=NC1Nc1nnc(-c2ccc(F)cn2)o1 (stereo not drawn) [Example 23]	> 800		> 50
O=C1Nc2ccccc2C(c2ccccc2)=NC1Nc1nnc(-c2ccccc2N2CCOCC2)o1 (stereo not drawn) [Example 125]		400 to 800	
COc1cc(-c2nnc(NC3N=C(c4ccccc4)c4ccccc4NC3=O)o2)ccc1F (stereo not drawn) [Example 14]	< 400		10 to 50
O=C1Nc2ccccc2C(c2ccccc2)=NC1Nc1nnc(-c2ccc(C(F)(F)F)cc2)o1 (stereo not drawn) [Example 28]	> 800		> 50
N#Cc1ccc(-c2nnc(NC3N=C(c4ccccc4)c4ccccc4NC3=O)o2)cc1 (stereo not drawn) [Example 12]	400 to 800		> 50
O=C1Nc2ccccc2C(c2ccccc2)=NC1Nc1nnc(-c2cscn2)o1 (stereo not drawn) [Example 77]	400 to 800		> 50
O=C1Nc2ccccc2C(c2ccccc2)=NC1Nc1nnc(-c2ccc(OC(F)(F)F)cc2)o1 (stereo not drawn) [Example 30]	> 800		> 50
O=C1Nc2ccccc2C(c2ccccc2)=NC1Nc1nnc(-c2ccccc2)[nH]1 (stereo not drawn) [Example 86]	> 800		> 50
O=C1Nc2ccccc2C(c2ccccc2)=NC1Nc1nc2c(F)cccc2o1 (stereo not drawn) [Example 105]	> 800		> 50
O=C1Nc2ccccc2C(c2ccccc2)=NC1Nc1nnco1 (stereo not drawn) [Example 79]	> 800		> 50
O=C1Nc2ccccc2C(c2ccccc2)=NC1Nc1nnc(-c2ccc(=O)[nH]c2)o1 (stereo not drawn) [Example 39]	> 800		> 50
